Data reported in patent US7741283B2, “Compositions and methods for inhibiting cell proliferation” (St. Louis University, priority 2003, dated 2010).
Where “and” joins values, the source holds several entries; their conditions need not be identical. Equal entries are not always repeated.

Legend:
Mv1Lu cells = experiment: [methyl-3H] thymidine incorporation (DNA synthesis), Mv1Lu cells; assay type: cell-based, mink; details: IGFBP-3 0.5 μg/ml, Mv1Lu
MEF cells [1] = experiment: [methyl-3H] thymidine incorporation, MEF cells; assay type: cell-based, mouse; details: IGFBP-3 up to 1 μg/ml
Protocol: (§1) FIG. 7 depicts the effect of TGF-β1 on DNA synthesis (A), cell growth (B) and PAI-1 expression (C) in MEF and PEA-13 cells. (A) Cells were treated with various concentrations of TGF-β1 as indicated. DNA synthesis was determined by measuring [methyl-^3H] thymidine incorporation into cellular DNA. The [methyl-^3H] thymidine incorporation in cells treated without TGF-β1 (100,861±3,720 and 103,262±6,722 cpm/well for MEF and PEA-13 cells, respectively) was taken as 0% inhibition. The negative values of inhibition indicate mitogenic activity. […] Each datapoint is the mean±S.D. of quadruplicate determinations. […] Data are representative of six similar experiments. (B) Cells were treated with various concentrations of TGF-β1 as indicated. The cell number was counted after a 4 day incubation. […] The negative values of the inhibition indicate the growth stimulatory activity. Each datapoint is the mean±S.D. of quadruplicate determinations. […] Data are representative of four similar experiments. (C) Cells were treated with various concentrations of TGF-β1 as indicated. The PAI-1 expression in these cells was determined by Northern blot analysis. The expression of G3PDH was used as control. The relative levels of the transcripts were quantified by a PhosphoImager. Data are representative of four similar experiments. […]

PEA-13 cells [2] = experiment: [methyl-3H] thymidine incorporation, PEA-13 cells; assay type: cell-based, mouse; details: IGFBP-3 up to 1 μg/ml
Protocol: as §1

MEF cells [3] = experiment: Cell growth (cell number), MEF cells; assay type: cell-based, mouse; details: IGFBP-3 up to 1 μg/ml
Protocol: as §1, with “The expression of G3PDH was used as control.” left out, “PhosphoImager.” for “PhosphoImager. Data are representative of four similar experiments.”
(§2) Cells were plated at a density of 1-2×10^4 cells/dish in DMEM containing 1% fetal calf serum. The cell number was counted every day or after a 3-day incubation using a hematocytometer. […]

PEA-13 cells [4] = experiment: Cell growth (cell number), PEA-13 cells; assay type: cell-based, mouse; details: IGFBP-3 up to 1 μg/ml
Protocol: as §1, with “The expression of G3PDH was used as control.” left out, “PhosphoImager.” for “PhosphoImager. Data are representative of four similar experiments.”
as §2

H1299/vector cells = experiment: [methyl-3H] thymidine incorporation, H1299/vector cells; assay type: cell-based, human; details: various concentrations
DR26 cells = experiment: [methyl-3H] thymidine incorporation, DR26 cells; assay type: cell-based, mink; details: IGFBP-3 0.5 μg/ml, DR26
Protocol: (A,B) DR26 cells were incubated with various concentrations as indicated of IGFBP-3 in the absence (A) and presence (B) of various concentrations of insulin. After 18 hr at 37° C., the [methyl-^3H] thymidine incorporation into cellular DNA was determined. (C,D,E) Mv1Lu, DR26 and R1B cells metabolically labeled with ^[…]-orthophosphate for 2 hr were treated with IGFBP-3 (1:g/ml) or insulin (10 nM) (C). DR26 cells metabolically labeled with ^[…]-orthophosphate for 2 hr were treated with or without IGFBP-3 (1 μg/ml) in the presence of various concentrations of TGF-β1 as indicated (D). Mv1Lu cells expressing αIβI and αIβII chimeric receptors (MB102-16 and MB102-9 cells, respectively) metabolically labeled with ^[…]-orthophosphate for 2 hr were treated with or without IGFBP-3 (1 μg/ml) or GM-CSF (1 nM) (E). After 2 hr at 37° C. (in the absence of […]-orthophosphate in the medium), the ^[…]-labeled IRS-2 was immunoprecipitated and analyzed by 7.5% SDS-PAGE and autoradiography. […]
Mv1Lu cells were plated on 24-well clustered dishes and incubated with various concentrations of TGF-β1 or IGFBP-3 in DMEM containing 0.1% fetal calf serum. After incubation at 37° C. for 18 hr, the cells were pulse-labeled with 1 μCi of [methyl-^3H]thymidine at 37° C. for 2 hr and the [methyl-^3H] thymidine incorporation into cellular DNA was determined as described previously (59). […]

IRS-2 [5] = experiment: 32P metabolic labeling and immunoprecipitation of IRS-2, Mv1Lu cells; assay type: cell-based, mink
IRS-2 [6] = experiment: 32P metabolic labeling and immunoprecipitation of IRS-2, DR26 cells; assay type: cell-based, mink; details: IGFBP-3 1 μg/ml
IRS-2 [7] = experiment: 32P metabolic labeling and immunoprecipitation of IRS-2, MB102-9 cells; assay type: cell-based, mink; details: MB102-9 cells (αIβII); IGFBP-3 1 μg/ml, GM-CSF 1 nM
[8] = test system: 32D cells expressing vector only; experiment: [methyl-3H] thymidine incorporation, 32D cells transfected with vector only; assay type: cell-based, murine
32D/IR/IRS-2 cells = experiment: [methyl-3H] thymidine incorporation, 32D/IR/IRS-2 cells; assay type: cell-based, murine; details: 32D cells expressing IRS-2 and insulin receptor
TβR-V/IGFBP-3 receptor = details: Mv1Lu cells; read-out: Kd of IGFBP-3 binding to its receptor; cited from earlier work

IGFBP-3: human insulin-like growth factor binding protein-3 expressed in E. Coli
Inhibition of DNA synthesis (Mv1Lu cells): ~30% and 30-50%
Effect on DNA synthesis (MEF cells [1]): did not appear to have a significant effect
Effect on DNA synthesis (PEA-13 cells [2]): did not appear to have a significant effect
Effect on cell growth (MEF cells [3]): did not appear to have a significant effect
Effect on cell growth (PEA-13 cells [4]): did not appear to have a significant effect
Effect on DNA synthesis (H1299/vector cells): acted as mitogens or growth stimulators
Inhibition of DNA synthesis (DR26 cells): ~80%
Incubation time after which mobility change of 32P-labeled IRS-2 occurred (IRS-2 [5]; IGFBP-3 1 μg/ml, Mv1Lu): 0.5 h
Half-optimal concentration (ED50) to induce electrophoretic mobility change of 32P-labeled IRS-2 (IRS-2 [5]; Mv1Lu cells): 0.1 to 0.3 µg/mL
Induction of specific dephosphorylation (mobility change) of 32P-labeled IRS-2 (IRS-2 [5]; Mv1Lu, IGFBPs 1 μg/ml, TGF-β1 20 pM): induces specific dephosphorylation
Electrophoretic mobility change of IRS-2 compared with Mv1Lu and R1B cells (IRS-2 [6]): induced a greater increase in electrophoretic mobility
Specific dephosphorylation (mobility change) of IRS-2 (IRS-2 [7]): induced specific dephosphorylation
Inhibition of DNA synthesis [8]: minimally or not at all
Growth inhibitory response (DNA synthesis) (32D/IR/IRS-2 cells): potent growth inhibitory response
Kd (TβR-V/IGFBP-3 receptor): 6 nM
